# In ChEMBL document CHEMBL1201861, “Genomics of Drug Sensitity in Cancer screening data, Wellcome Trust Sanger Institute”:
# Columns and labels:
# Experiment in all cases: cells
# MeWo = assay type: functional, cell-based, Homo sapiens; settings: Homo sapiens, MeWo;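 further: growth inhibition of MeWo cells, determined by a cell viability readout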
# Description: SANGER: Inhibition of human Mewo cell growth in a cell viability assay.
# NCI-H1793 = assay type: functional, cell-based, Homo sapiens; settings: Homo sapiens, NCI-H1793;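 further: cell growth inhibition, read out by a cell viability assay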
# Description: SANGER: Inhibition of human NCI-H1793 cell growth in a cell viability assay.
# MIA PaCa-2 = assay type: functional, cell-based, Homo sapiens; settings: Homo sapiens, MIA PaCa-2;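 further: growth inhibition of MIA PaCa-2 cells, read out with a cell viability assay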
# Description: SANGER: Inhibition of human MIA-PaCa-2 cell growth in a cell viability assay.
# SK-N-DZ = assay type: functional, cell-based, Homo sapiens; settings: Homo sapiens, SK-N-DZ;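 further: growth inhibition of the cancer cell line, read out through a viability assay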
# Description: SANGER: Inhibition of human SK-N-DZ cell growth in a cell viability assay.
# SW837 = assay type: functional, cell-based, Homo sapiens; settings: Homo sapiens, SW837;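 further: growth inhibition of SW837 cells, determined with a cell viability assay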
# Description: SANGER: Inhibition of human SW837 cell growth in a cell viability assay.
# BB65-RCC = assay type: functional, cell-based, Homo sapiens; settings: Homo sapiens, BB65-RCC;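 further: growth inhibition of the cell line, measured with a cell viability assay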
# Description: SANGER: Inhibition of human BB65-RCC cell growth in a cell viability assay.
# OCUB-M = assay type: functional, cell-based, Homo sapiens; settings: Homo sapiens, OCUB-M;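 further: growth inhibition of the cancer cell line, read out through a cell viability assay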
# Description: SANGER: Inhibition of human OCUB-M cell growth in a cell viability assay.
# Panc1005 = assay type: functional, cell-based, Homo sapiens; settings: Homo sapiens, Panc1005;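 further: growth inhibition of human PANC-10-05 cells, measured by a cell viability assay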
# Description: SANGER: Inhibition of human PANC-10-05 cell growth in a cell viability assay.
# TE-8 = assay type: functional, cell-based, Homo sapiens; settings: Homo sapiens, TE-8;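 further: growth inhibition of TE-8 cells, measured with a cell viability readout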
# Description: SANGER: Inhibition of human TE-8 cell growth in a cell viability assay.
# KYSE-520 cell line = assay type: functional, cell-based, Homo sapiens; settings: Homo sapiens, KYSE-520;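 further: growth inhibition of human KYSE-520 cells, read out with a viability assay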
# Description: SANGER: Inhibition of human KYSE-520 cell growth in a cell viability assay.
# COLO-678 = assay type: functional, cell-based, Homo sapiens; settings: Homo sapiens, COLO-678
# Description: SANGER: Inhibition of human COLO-678 cell growth in a cell viability assay.
# Capan-2 = assay type: functional, cell-based, Homo sapiens; settings: Homo sapiens, Capan-2;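 further: Capan-2 cell growth inhibition, read out with a viability assay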
# Description: SANGER: Inhibition of human Capan-2 cell growth in a cell viability assay.
# NCI-H1437 = assay type: functional, cell-based, Homo sapiens; settings: Homo sapiens, NCI-H1437;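 further: growth inhibition of human NCI-H1437 cells, read out by a cell viability assay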
# Description: SANGER: Inhibition of human NCI-H1437 cell growth in a cell viability assay.
# OVCAR-3 = assay type: functional, cell-based, Homo sapiens; settings: Homo sapiens, OVCAR-3;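 further: growth inhibition of human OVCAR-3 cells, determined by a cell viability assay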
# Description: SANGER: Inhibition of human OVCAR-3 cell growth in a cell viability assay.
# M059J = assay type: functional, cell-based, Homo sapiens; settings: Homo sapiens, M059J;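 further: growth inhibition of M059J cells, read out with a cell viability assay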
# Description: SANGER: Inhibition of human M059J cell growth in a cell viability assay.
# SNB-75 = assay type: functional, cell-based, Homo sapiens; settings: Homo sapiens, SNB-75;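 further: cell viability assay measuring growth inhibition of human SNB-75 cells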
# Description: SANGER: Inhibition of human SNB75 cell growth in a cell viability assay.
# EFM-19 = assay type: functional, cell-based, Homo sapiens; settings: Homo sapiens, EFM-19;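 further: growth inhibition of human EFM-19 cells, measured in a cell viability assay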
# Description: SANGER: Inhibition of human EFM-19 cell growth in a cell viability assay.
# COLO-800 = assay type: functional, cell-based, Homo sapiens; settings: Homo sapiens, COLO-800;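 further: growth inhibition of COLO-800 cells, read out with a cell viability assay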
# Description: SANGER: Inhibition of human COLO-800 cell growth in a cell viability assay.
# RO82-W-1 = assay type: functional, cell-based, Homo sapiens; settings: Homo sapiens, RO82-W-1;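 further: growth inhibition of human RO82-W-1 cells, measured with a cell viability assay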
# Description: SANGER: Inhibition of human RO82-W-1 cell growth in a cell viability assay.
# SJSA-1 = assay type: functional, cell-based, Homo sapiens; settings: Homo sapiens, SJSA-1;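 further: growth inhibition of human SJSA-1 cells, read out through a cell viability measurement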
# Description: SANGER: Inhibition of human SJSA-1 cell growth in a cell viability assay.
# COLO-829 = assay type: functional, cell-based, Homo sapiens; settings: Homo sapiens, COLO-829
# Description: SANGER: Inhibition of human COLO-829 cell growth in a cell viability assay.
# C32 = assay type: functional, cell-based, Homo sapiens; settings: Homo sapiens, C32;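 further: cell viability assay, with IC50 reflecting inhibition of C32 cell growth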
# Description: SANGER: Inhibition of human C32 cell growth in a cell viability assay.
# Ca9-22 = assay type: functional, cell-based, Homo sapiens; settings: Homo sapiens, Ca9-22;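 further: growth inhibition of Ca9-22 cells, read out with a cell viability assay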
# Description: SANGER: Inhibition of human Ca9-22 cell growth in a cell viability assay.
# PANC-08-13 = assay type: functional, cell-based, Homo sapiens; settings: Homo sapiens, PANC-08-13;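 further: cell growth inhibition, measured with a cell viability assay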
# Description: SANGER: Inhibition of human PANC-08-13 cell growth in a cell viability assay.
# PC-3 = assay type: functional, cell-based, Homo sapiens; settings: Homo sapiens, PC-3;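 further: cell viability assay measuring growth inhibition of PC-3 cells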
# Description: SANGER: Inhibition of human PC-3 cell growth in a cell viability assay.
# LB2241-RCC = assay type: functional, cell-based, Homo sapiens; settings: Homo sapiens, LB2241-RCC;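 further: cell viability assay measuring how strongly the cultured human renal carcinoma line is prevented from growing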
# Description: SANGER: Inhibition of human LB2241-RCC cell growth in a cell viability assay.
# ES6 = assay type: functional, cell-based, Homo sapiens; settings: Homo sapiens, ES6;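 further: growth inhibition of human ES6 cells, read out with a cell viability assay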
# Description: SANGER: Inhibition of human ES6 cell growth in a cell viability assay.
# C2BBe1 = assay type: functional, cell-based, Homo sapiens; settings: Homo sapiens, C2BBe1;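 further: growth inhibition of C2BBe1 cells, read out through a viability assay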
# Description: SANGER: Inhibition of human C2BBe1 cell growth in a cell viability assay.
# GAMG = assay type: functional, cell-based, Homo sapiens; settings: Homo sapiens, GAMG;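 further: cell growth inhibition measured by a viability assay in the GAMG human cell line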
# Description: SANGER: Inhibition of human GAMG cell growth in a cell viability assay.
# LN-405 = assay type: functional, cell-based, Homo sapiens; settings: Homo sapiens, LN-405
# Description: SANGER: Inhibition of human LN-405 cell growth in a cell viability assay.
# HCE-T = assay type: functional, cell-based, Homo sapiens; settings: Homo sapiens, HCE-T;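 further: cell viability assay read-out, reporting inhibition of HCE-T cell growth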
# Description: SANGER: Inhibition of human HCE-T cell growth in a cell viability assay.
# U2OS = assay type: functional, cell-based, Homo sapiens, U-2-OS; settings: Homo sapiens, U2OS;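 further: growth inhibition of human U-2-OS cells, determined with a cell viability assay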
# Description: SANGER: Inhibition of human U-2-OS cell growth in a cell viability assay.
# DU-4475 = assay type: functional, cell-based; settings: Homo sapiens
# Description: SANGER: Inhibition of human DU-4475 cell growth in a cell viability assay.
# RD = assay type: functional, cell-based, Homo sapiens; settings: Homo sapiens, RD
# Description: SANGER: Inhibition of human RD cell growth in a cell viability assay.
# OS-RC-2 = assay type: functional, cell-based, Homo sapiens; settings: Homo sapiens, OS-RC-2;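 further: growth inhibition of human OS-RC-2 cells, measured by a cell viability assay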
# Description: SANGER: Inhibition of human OS-RC-2 cell growth in a cell viability assay.
# LNCaP-Clone-FGC = assay type: functional, cell-based, Homo sapiens; settings: Homo sapiens, LNCaP-Clone-FGC
# Description: SANGER: Inhibition of human LNCaP-Clone-FGC cell growth in a cell viability assay.
# CAL-39 = assay type: functional, cell-based, Homo sapiens; settings: Homo sapiens, CAL-39;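 further: cell viability assay measuring growth inhibition of CAL-39 cells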
# Description: SANGER: Inhibition of human CAL-39 cell growth in a cell viability assay.
# NCI-H226 = assay type: functional, cell-based, Homo sapiens; settings: Homo sapiens, NCI-H226;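 further: cell viability read-out used to gauge growth inhibition of the cells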
# Description: SANGER: Inhibition of human NCI-H226 cell growth in a cell viability assay.
# TE-1 = assay type: functional, cell-based, Homo sapiens; settings: Homo sapiens, TE-1;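 further: growth inhibition of the human TE-1 cell line, read out with a cell viability assay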
# Description: SANGER: Inhibition of human TE-1 cell growth in a cell viability assay.
# HCC1419 = assay type: functional, cell-based, Homo sapiens; settings: Homo sapiens, HCC1419;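 further: growth inhibition of human HCC1419 cells, read out as cell viability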
# Description: SANGER: Inhibition of human HCC1419 cell growth in a cell viability assay.
# OE33 = assay type: functional, cell-based, Homo sapiens; settings: Homo sapiens, OE33;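 further: growth inhibition of human OE33 cells, measured by a cell viability assay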
# Description: SANGER: Inhibition of human OE33 cell growth in a cell viability assay.
# UACC-62 = assay type: functional, cell-based, Homo sapiens; settings: Homo sapiens, UACC-62;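 further: growth inhibition of human UACC-62 cells, read out by a cell viability assay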
# Description: SANGER: Inhibition of human UACC-62 cell growth in a cell viability assay.
# MDA-MB-157 = assay type: functional, cell-based, Homo sapiens; settings: Homo sapiens, MDA-MB-157
# Description: SANGER: Inhibition of human MDA-MB-157 cell growth in a cell viability assay.
# KURAMOCHI = assay type: functional, cell-based; settings: Homo sapiens;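 further: growth inhibition of KURAMOCHI cells, read out with a cell viability assay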
# Description: SANGER: Inhibition of human KURAMOCHI cell growth in a cell viability assay.
# NCI-H510A = assay type: functional, cell-based; settings: Homo sapiens;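 further: growth inhibition of NCI-H510A cells, read out with a cell viability assay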
# LS-123 = assay type: functional, cell-based, Homo sapiens; settings: Homo sapiens, LS-123
# DJM-1 = assay type: functional, cell-based, Homo sapiens; settings: Homo sapiens, DJM-1;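 further: growth inhibition of human DJM-1 cells, read out by a cell viability assay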
# Description: SANGER: Inhibition of human DJM-1 cell growth in a cell viability assay.
# NCI-H2452 = assay type: functional, cell-based, Homo sapiens; settings: Homo sapiens, NCI-H2452;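 further: growth inhibition of NCI-H2452 cells, read out with a cell viability assay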
# Description: SANGER: Inhibition of human NCI-H2452 cell growth in a cell viability assay.
# SF-295 = assay type: functional, cell-based, Homo sapiens; settings: Homo sapiens, SF-295; read-out: IC50;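 further: growth inhibition of SF-295 cells, read out with a cell viability assay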
# Description: SANGER: Inhibition of human SF295 cell growth in a cell viability assay.
smiles,measurement,setting,value
CN(C)C/C=C/C(=O)Nc1cc2c(Nc3ccc(F)c(Cl)c3)ncnc2cc1O[C@H]1CCOC1 [AFATINIB],IC50,MeWo,> 0.5 µM
same,IC50,NCI-H1793,> 0.5 µM
same,IC50,MIA PaCa-2,> 0.5 µM
same,IC50,SK-N-DZ,> 0.5 µM
same,IC50,SW837,> 0.5 µM
same,IC50,BB65-RCC,0.346 µM
same,IC50,OCUB-M,> 0.5 µM
same,IC50,Panc1005,> 0.5 µM
same,IC50,TE-8,> 0.5 µM
same,IC50,KYSE-520 cell line,> 0.5 µM
same,IC50,COLO-678,> 0.5 µM
same,IC50,Capan-2,> 0.5 µM
same,IC50,NCI-H1437,> 0.5 µM
same,IC50,OVCAR-3,> 0.5 µM
same,IC50,M059J,> 0.5 µM
same,IC50,SNB-75,> 0.5 µM
same,IC50,EFM-19,> 0.5 µM
same,IC50,COLO-800,> 0.5 µM
same,IC50,RO82-W-1,> 0.5 µM
same,IC50,SJSA-1,> 0.5 µM
same,IC50,COLO-829,> 0.5 µM
same,IC50,C32,> 0.5 µM
same,IC50,Ca9-22,0.0835 µM
same,IC50,PANC-08-13,> 0.5 µM
same,IC50,PC-3,> 0.5 µM
same,IC50,LB2241-RCC,0.109 µM
same,IC50,ES6,> 0.5 µM
same,IC50,C2BBe1,> 0.5 µM
same,IC50,GAMG,> 0.5 µM
same,IC50,LN-405,> 0.5 µM
same,IC50,HCE-T,> 0.5 µM
same,IC50,U2OS,> 0.5 µM
same,IC50,DU-4475,> 0.5 µM
same,IC50,RD,> 0.5 µM
same,IC50,OS-RC-2,> 0.5 µM
same,IC50,LNCaP-Clone-FGC,> 0.5 µM
same,IC50,CAL-39,0.118 µM
same,IC50,NCI-H226,> 0.5 µM
same,IC50,TE-1,> 0.5 µM
same,IC50,HCC1419,0.364 µM
same,IC50,OE33,> 0.5 µM
same,IC50,UACC-62,> 0.5 µM
same,IC50,MDA-MB-157,> 0.5 µM
same,IC50,KURAMOCHI,> 0.5 µM
same,IC50,NCI-H510A,> 0.5 µM
same,IC50,LS-123,> 0.5 µM
same,IC50,DJM-1,> 0.5 µM
same,IC50,NCI-H2452,> 0.5 µM
same,IC50,SF-295,> 0.5 µM
O=C(NOCC1CC1)c1ccc(F)c(F)c1Nc1ccc(I)cc1Cl [CI-1040],IC50,MeWo,1.2 µM
same,IC50,NCI-H1793,> 10 µM
same,IC50,MIA PaCa-2,3.01 µM
same,IC50,SK-N-DZ,> 10 µM
same,IC50,SW837,> 10 µM
same,IC50,BB65-RCC,2.41 µM
same,IC50,OCUB-M,> 10 µM
same,IC50,Panc1005,6.28 µM
same,IC50,TE-8,5.69 µM
same,IC50,KYSE-520 cell line,> 10 µM
same,IC50,COLO-678,7.71 µM
same,IC50,Capan-2,> 10 µM
same,IC50,NCI-H1437,1.55 µM
same,IC50,OVCAR-3,> 10 µM
same,IC50,M059J,> 10 µM
same,IC50,SNB-75,> 10 µM
same,IC50,EFM-19,> 10 µM
same,IC50,COLO-800,> 10 µM
same,IC50,RO82-W-1,> 10 µM
same,IC50,SJSA-1,> 10 µM
same,IC50,COLO-829,1.62 µM
same,IC50,C32,0.191 µM
same,IC50,Ca9-22,2.97 µM
same,IC50,PANC-08-13,> 10 µM
same,IC50,PC-3,> 10 µM
same,IC50,LB2241-RCC,2.86 µM
same,IC50,ES6,> 10 µM
same,IC50,C2BBe1,0.81 µM
same,IC50,GAMG,4.02 µM
same,IC50,LN-405,> 10 µM
same,IC50,HCE-T,2.83 µM
same,IC50,U2OS,3.67 µM
same,IC50,DU-4475,0.076 µM
same,IC50,RD,2.45 µM
same,IC50,OS-RC-2,> 10 µM
same,IC50,LNCaP-Clone-FGC,> 10 µM
same,IC50,CAL-39,2.9 µM
same,IC50,NCI-H226,> 10 µM
same,IC50,TE-1,> 10 µM
same,IC50,HCC1419,> 10 µM
same,IC50,OE33,> 10 µM
same,IC50,UACC-62,> 10 µM
same,IC50,MDA-MB-157,> 10 µM
same,IC50,KURAMOCHI,> 10 µM
same,IC50,NCI-H510A,> 10 µM
same,IC50,LS-123,> 10 µM
same,IC50,DJM-1,> 10 µM
same,IC50,NCI-H2452,> 10 µM
same,IC50,SF-295,> 10 µM
